Laboratory results: patent US12234220B2, “Immunomodulatory compounds” (DANA-FARBER CANCER INSTITUTE, INC., priority 2018, dated 2025)
Like-named read-outs stand apart in the source and are kept apart here.

Molecular target: DDB1AB-CRBN (Homo sapiens, UniProt Q96SW2)
Assay: Lenalidomide displacement assay (Atto565-Lenalidomide fluorescence polarization)
Format: binding
Conditions: for Ki: calculated from IC50 with probe Kd of 40 nM, competitive model, read-out: CRBN Binding Ki; for binding affinity with CRBN, in words: fluorescence polarization assay, compared to lenalidomide control, FIG. 1A
Protocol: Compound titrations were incubated for 60 min at RT. The change in fluorescence polarization was monitored using a PHERAstar® FS microplate reader (BMG Labtech) for 1 h in 120 s cycles.

[1] = Table 1, n=2, 10 nM Atto565-Lenalidomide probe, 100 nM DDB1AB-CRBN
[2] = Table 1, n=2, 10 nM Atto565-Lenalidomide probe, 100 nM DDB1AB-CRBN, read-out: CRBN Binding IC50
[3] = refers to Tables 1 and 2, FIG. 1A/1B, read-out: IC50

Sequence of DDB1AB-CRBN (Q96SW2 whole entry): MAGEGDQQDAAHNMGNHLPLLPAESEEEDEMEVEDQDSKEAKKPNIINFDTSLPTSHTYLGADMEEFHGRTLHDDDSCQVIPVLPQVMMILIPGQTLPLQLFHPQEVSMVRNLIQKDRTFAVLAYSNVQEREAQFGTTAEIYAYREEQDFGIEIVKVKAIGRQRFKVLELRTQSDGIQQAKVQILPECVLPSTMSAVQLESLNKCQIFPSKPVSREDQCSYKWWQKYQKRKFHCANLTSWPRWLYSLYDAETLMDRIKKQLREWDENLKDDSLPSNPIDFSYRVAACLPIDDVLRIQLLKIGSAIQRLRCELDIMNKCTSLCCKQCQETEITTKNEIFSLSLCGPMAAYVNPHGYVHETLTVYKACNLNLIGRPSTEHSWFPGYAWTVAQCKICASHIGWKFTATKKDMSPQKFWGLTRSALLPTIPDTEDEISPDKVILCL

O=C1CCC(NC(=O)Nc2cccc3c2NCC3)C(=O)N1 (stereo not drawn) [Compound 29, 1-(2,6-Dioxopiperidin-3-yl)-3-(indolin-7-yl)urea]
CRBN Binding IC50 [1]: inactive

Nc1cnc2c(C(=O)NC3CCC(=O)NC3=O)cccc2c1 (stereo not drawn) [Compound 25, 3-Amino-N-(2,6-dioxopiperidin-3-yl)quinoline-8-carboxamide]
Ki (Table 1): 5 µM
IC50 [2]: 17.5 µM

O=C1CCC(NC(=O)c2cccc3cccnc23)C(=O)N1 (stereo not drawn) [Compound 8, N-(2,6-dioxopiperidin-3-yl)quinoline-8-carboxamide]
Ki (Table 1): 4 µM
IC50 [2]: 14 µM

O=C1CCC(NC(=O)c2cccc3c(O)ccnc23)C(=O)N1 (stereo not drawn) [Compound 26, N-(2,6-dioxopiperidin-3-yl)-4-hydroxyquinoline-8-carboxamide]
CRBN Binding, probe displacement at single concentration (at 100 μM): 50% at 100 μM
probe displacement (at 100 μM): 50%

O=C1CCC(NC(=O)c2ccc(OCc3ccc(CN4CCOCC4)cc3)cn2)C(=O)N1 (stereo not drawn) [Compound 11, N-(2,6-dioxopiperidin-3-yl)-5-((4-(morpholinomethyl)benzyl)oxy)picolinamide]
CRBN Binding, probe displacement at single concentration (at 100 μM): 50% at 100 μM

Nc1ccnc2c(C(=O)NC3CCC(=O)NC3=O)cccc12 (stereo not drawn) [Compound 24, 4-Amino-N-(2,6-dioxopiperidin-3-yl)quinoline-8-carboxamide]
Ki (Table 1): 2.2 µM
IC50 [3]: 7.7 µM

O=C1CCC(NC(=O)c2cccn(-c3ccccc3)c2=O)C(=O)N1 (stereo not drawn) [Compound 21, N-(2,6-dioxopiperidin-3-yl)-2-oxo-1-phenyl-1,2-dihydropyridine-3-carboxamide]
Ki (Table 1): 20.6 µM
IC50 [2]: 72 µM

O=C1CCC(NC(=O)Nc2ccc(O)cn2)C(=O)N1 (stereo not drawn) [Compound 28, 1-(2,6-Dioxopiperidin-3-yl)-3-(5-hydroxypyridin-2-yl)urea]
CRBN Binding IC50 [1]: inactive

O=C1CCC(NC(=O)c2cccc3nc[nH]c23)C(=O)N1 (stereo not drawn) [Compound 31, N-(2,6-dioxopiperidin-3-yl)-1H-benzo[d]imidazole-4-carboxamide]
Ki (Table 1): 10.7 µM
IC50 [2]: 37.6 µM

O=C1CCC(NC(=O)c2cccc(OCc3ccc(CN4CCOCC4)cc3)n2)C(=O)N1 (stereo not drawn) [Compound 32, N-(2,6-dioxopiperidin-3-yl)-6-((4-(morpholinomethyl)benzyl)oxy)picolinamide]
Ki (Table 1): 11.4 µM
IC50 [2]: 40 µM

Nc1ccc(C(=O)NC2CCC(=O)NC2=O)c2ncccc12 (stereo not drawn) [Compound 23, 5-Amino-N-(2,6-dioxopiperidin-3-yl) quinoline-8-carboxamide]
Ki (Table 1): 0.8 µM
IC50 [3]: 2.9 µM

COc1cccc(C(=O)NC2CCC(=O)NC2=O)n1 (stereo not drawn) [Compound 6, N-(2,6-dioxopiperidin-3-yl)-6-methoxypicolinamide]
CRBN Binding IC50 [1]: Inactive

O=C1CCC(NC(=O)c2ccnc(NCc3ccccc3)n2)C(=O)N1 (stereo not drawn) [Compound 5, 2-(benzylamino)-N-(2,6-dioxopiperidin-3-yl)pyrimidine-4-carboxamide]
Ki (Table 1): 32.5 µM
IC50 [2]: 113 µM
binding affinity with CRBN, in words: moderate binding affinity

Cn1cccc(C(=O)NC2CCC(=O)NC2=O)c1=O (stereo not drawn) [Compound 20, N-(2,6-dioxopiperidin-3-yl)-1-methyl-2-oxo-1,2-dihydropyridine-3-carboxamide]
Ki (Table 1): 66 µM
IC50 [2]: 231 µM

O=C1CCC(NC(=O)c2cccc(OCc3ccccc3)n2)C(=O)N1 (stereo not drawn) [Compound 1, 6-(benzyloxy)-N-(2,6-dioxopiperidin-3-yl)picolinamide]
Ki (Table 1): 15.7 µM
IC50 [2]: 55 µM

O=C1CCC(NC(=O)c2cccn(Cc3ccccc3)c2=O)C(=O)N1 (stereo not drawn) [Compound 22, 1-Benzyl-N-(2,6-dioxopiperidin-3-yl)-2-oxo-1,2-dihydropyridine-3-carboxamide]
Ki (Table 1): 15 µM
IC50 [2]: 53 µM

O=C1CCC(NC(=O)c2ccc[nH]c2=O)C(=O)N1 (stereo not drawn) [Compound 19, N-(2,6-dioxopiperidin-3-yl)-2-oxo-1,2-dihydropyridine-3-carboxamide]
Ki (Table 1): 15 µM
IC50 [2]: 53 µM

O=C1CCC(NC(=O)c2cc(Cl)ccn2)C(=O)N1 (stereo not drawn) [Compound 4, 4-chloro-N-(2,6-dioxopiperidin-3-yl)picolinamide]
CRBN Binding, probe displacement at single concentration (at 100 μM): 30% at 100 μM
binding affinity with CRBN, in words: moderate binding affinity

Nc1ccc(NC(=O)NC2CCC(=O)NC2=O)nc1 (stereo not drawn) [Compound 27, 1-(5-aminopyridin-2-yl)-3-(2,6-dioxopiperidin-3-yl)urea]
CRBN Binding, probe displacement at single concentration (at 100 μM): 50% at 100 μM

Nc1cccc(C(=O)NC2CCC(=O)NC2=O)n1 (stereo not drawn) [Compound 3, 6-amino-N-(2,6-dioxopiperidin-3-yl)picolinamide]
CRBN Binding, probe displacement at single concentration (at 100 μM): 30% at 100 μM
binding affinity with CRBN, in words: moderate binding affinity

O=C1CCC(NC(=O)c2ccnc(OCc3ccccc3)n2)C(=O)N1 (stereo not drawn) [Compound 7, 2-(benzyloxy)-N-(2,6-dioxopiperidin-3-yl)pyrimidine-4-carboxamide]
Ki (Table 1): 8.3 µM
IC50 [2]: 29 µM

O=C1CCC(NC(=O)c2cccc3c2NCC3)C(=O)N1 (stereo not drawn) [Compound 30, N-(2,6-dioxopiperidin-3-yl)indoline-7-carboxamide]
CRBN Binding, probe displacement at single concentration (at 100 μM): 50% at 100 μM
